Values joined by “and” are separate entries in the source; they are usually repeats but may differ in a detail not shown here. Equal values may be shown once. Toxic doses and inconclusive results are not listed. Rule for the calls: active = survival T/C of 150% or more; inactive = T/C below 125% in these data.
System: P388 leukemia ip, CD2F1 mice, survival T/C
Assay: NCI In Vivo Anticancer Drug Screen. Data for tumor model P388 Leukemia (intraperitoneal) in CD2F1 (CDF1) mice
Details: endpoint: median survival time, higher = longer survival
Outline: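 Mice carrying the transplanted tumor received test compound or vehicle. Survival was recorded in each group, and the value is the treated-group measurement divided by that of the vehicle-treated control group.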

[1] = dose: 50.0 mg/kg/injection, schedule: Q01DX005 (ip), vehicle: saline with Tween-80
[2] = dose: 100.0 mg/kg/injection, schedule: Q01DX005 (ip), vehicle: saline with Tween-80
[3] = dose: 200.0 mg/kg/injection, schedule: Q01DX005 (ip), vehicle: saline with Tween-80
[4] = dose: 100.0 mg/kg/injection, schedule: Q01DX009 (ip), vehicle: saline with Tween-80
[5] = dose: 6.25 mg/kg/injection, schedule: Q01DX009 (ip), vehicle: saline with Tween-80
[6] = dose: 12.5 mg/kg/injection, schedule: Q01DX009 (ip), vehicle: saline with Tween-80
[7] = dose: 25.0 mg/kg/injection, schedule: Q01DX009 (ip), vehicle: saline with Tween-80
[8] = dose: 50.0 mg/kg/injection, schedule: Q01DX009 (ip), vehicle: saline with Tween-80
[9] = dose: 60.0 mg/kg/injection, schedule: Q01DX005 (ip), vehicle: saline with Tween-80
[10] = dose: 120.0 mg/kg/injection, schedule: Q01DX005 (ip), vehicle: saline with Tween-80
[11] = dose: 240.0 mg/kg/injection, schedule: Q01DX005 (ip), vehicle: saline with Tween-80

Measured: T/C

O=C(NCCNCCO)c1cccc(Nc2cc(O)c(O)c3ccccc23)c1
inactive: [1] 108 % of control | [2] 100 % of control | [3] 97 % of control

O=C(Nc1ccc(Cl)c(Cl)c1)NN1CCCCCC1
inactive: [1] 103 % of control | [2] 103 % of control | [3] 101 % of control

O=C(O)CCCC#C/C=C/CCCC/C=C(Br)\C=C/Br
inactive: dose: 62.5 mg/kg/injection, schedule: Q01DX009 (ip), vehicle: olive oil, sesame oil, peanut oil 106 % of control | dose: 125.0 mg/kg/injection, schedule: Q01DX009 (ip), vehicle: olive oil, sesame oil, peanut oil 96 % of control | dose: 250.0 mg/kg/injection, schedule: Q01DX009 (ip), vehicle: olive oil, sesame oil, peanut oil 100 % of control

CCN1C2=NCCN2C(=O)c2ccccc21
inactive: dose: 50.0 mg/kg/injection, schedule: Q01DX009 (ip), vehicle: Klucel (hydroxypropylcellulose) (HPC) 97 % of control | dose: 100.0 mg/kg/injection, schedule: Q01DX009 (ip), vehicle: Klucel (hydroxypropylcellulose) (HPC) 97 % of control

CCCCCCCCCCCCCC[N+]1(CC)CCOCC1
inactive: dose: 3.12 mg/kg/injection, schedule: Q01DX009 (ip), vehicle: saline 119 % of control | dose: 6.25 mg/kg/injection, schedule: Q01DX009 (ip), vehicle: saline 115 % of control | dose: 12.5 mg/kg/injection, schedule: Q01DX009 (ip), vehicle: saline 123 % of control

CC(=O)OCC12C(OC(C)=O)CC(C)C3(CC(c4ccoc4)OC3=O)C1CCC(=O)C2(O)CCl (centres undefined)
inactive: dose: 0.75 mg/kg/injection, schedule: Q01DX005 (ip), vehicle: saline + alcohol 106 % of control | dose: 1.5 mg/kg/injection, schedule: Q01DX005 (ip), vehicle: saline + alcohol 103 % of control | dose: 3.0 mg/kg/injection, schedule: Q01DX005 (ip), vehicle: saline + alcohol 106 % of control | dose: 6.0 mg/kg/injection, schedule: Q01DX005 (ip), vehicle: saline + alcohol 108 % of control | dose: 12.0 mg/kg/injection, schedule: Q01DX005 (ip), vehicle: saline + alcohol 106 % of control | dose: 12.5 mg/kg/injection, schedule: Q01DX005 (ip), vehicle: saline + Tween-80 + alcohol 92 % of control | dose: 25.0 mg/kg/injection, schedule: Q01DX005 (ip), vehicle: saline + Tween-80 + alcohol 98 % of control | dose: 100.0 mg/kg/injection, schedule: Q01DX005 (ip), vehicle: saline + Tween-80 + alcohol 89 % of control | dose: 150.0 mg/kg/injection, schedule: Q01DX005 (ip), vehicle: saline + Tween-80 + alcohol 91 % of control

CC(C)CC(=O)Nc1ccc(S(=O)(=O)Cl)cc1
inactive: dose: 100.0 mg/kg/injection, schedule: Q01DX009 (ip), vehicle: saline 100 % of control | dose: 200.0 mg/kg/injection, schedule: Q01DX009 (ip), vehicle: saline 90 % of control | dose: 400.0 mg/kg/injection, schedule: Q01DX009 (ip), vehicle: saline 90 % of control

CC(=O)Nc1ccc(C(=O)C=O)cc1
inactive: [4] 119 % of control

COc1c(C)c(O)c2c(c1O)/C(=C/N=NC(N)=S)C(Cl)=N2
inactive: dose: 100.0 mg/kg/injection, schedule: Q01DX001 (ip), vehicle: saline with Tween-80 103 % of control | dose: 200.0 mg/kg/injection, schedule: Q01DX001 (ip), vehicle: saline with Tween-80 103 % of control | dose: 400.0 mg/kg/injection, schedule: Q01DX001 (ip), vehicle: saline with Tween-80 96 % of control

O=C(N=Nc1c(Cl)c(O)c2ccccc2c1O)c1ccccc1O
inactive: [5] 100 % of control | [6] 108 % of control | [7] 106 % of control | [8] 104 % of control and 115 % of control

O=C(Nc1ccc(Cl)cc1)Nc1nnc(-c2cc([N+](=O)[O-])cc([N+](=O)[O-])c2)o1
inactive: [9] 98 % of control | [10] 92 % of control | [11] 86 % of control

Fc1ccc(C(Nc2nncs2)Nc2nncs2)cc1F
inactive: [9] 101 % of control | [10] 101 % of control | [11] 110 % of control

Cc1cn2ccccc2c[n+]1=O
inactive: dose: 5.0 mg/kg/injection, schedule: Q01DX009 (ip), vehicle: saline sonified 104 % of control | dose: 10.0 mg/kg/injection, schedule: Q01DX009 (ip), vehicle: saline sonified 90 % of control

COc1cc2c(cc1O)C(CSC)Cc1cc(OC)c(OC)cc1N(C)CC2 (centres undefined)
inactive: [8] 104 % of control | [4] 101 % of control | dose: 200.0 mg/kg/injection, schedule: Q01DX009 (ip), vehicle: saline with Tween-80 109 % of control

Cc1ncc(CO)c(CO)c1OCC(O)CN1CCN(C(=O)c2ccccc2)CC1 (centres undefined)
inactive: dose: 60.0 mg/kg/injection, schedule: Q01DX005 (ip), vehicle: saline 101 % of control | dose: 120.0 mg/kg/injection, schedule: Q01DX005 (ip), vehicle: saline 104 % of control

CCOC(=O)C1=C(N)CCCC1
inactive: dose: 50.0 mg/kg/injection, schedule: Q01DX001 (ip), vehicle: Klucel (hydroxypropylcellulose) (HPC) 107 % of control | dose: 100.0 mg/kg/injection, schedule: Q01DX001 (ip), vehicle: Klucel (hydroxypropylcellulose) (HPC) 96 % of control | dose: 200.0 mg/kg/injection, schedule: Q01DX001 (ip), vehicle: Klucel (hydroxypropylcellulose) (HPC) 110 % of control | dose: 400.0 mg/kg/injection, schedule: Q01DX001 (ip), vehicle: Klucel (hydroxypropylcellulose) (HPC) 99 % of control

NC(=S)/C(N)=N/Nc1ccc(Cl)cc1
inactive: [5] 104 % of control | [6] 103 % of control | [7] 106 % of control | [8] 116 % of control

CN(N=O)C(=O)NCCNC(=O)C1OC(n2cnc3c(=O)[nH]cnc32)C(O)C1O (centres undefined)
inactive: [2] 106 % of control | [3] 109 % of control | dose: 400.0 mg/kg/injection, schedule: Q01DX005 (ip), vehicle: saline with Tween-80 115 % of control

COc1ccc(N(C)C(=O)c2ccccc2S(=O)(=O)c2ccccc2C(=O)N(C)c2ccc(OC)cc2)cc1
inactive: [1] 104 % of control | [2] 98 % of control | [3] 100 % of control

CC(C)N1COC2Cc3ccccc3CC21 (centres undefined)
inactive: dose: 6.25 mg/kg/injection, schedule: Q01DX005 (ip), vehicle: saline 99 % of control | dose: 12.5 mg/kg/injection, schedule: Q01DX005 (ip), vehicle: saline 101 % of control | dose: 25.0 mg/kg/injection, schedule: Q01DX005 (ip), vehicle: saline 101 % of control and 110 % of control | dose: 50.0 mg/kg/injection, schedule: Q01DX005 (ip), vehicle: saline 117 % of control and 120 % of control and 121 % of control

CCB1OC2C(COC(C)=O)OC(OC(C)=O)C2O1 (centres undefined)
inactive: [1] 101 % of control | [2] 110 % of control | [3] 113 % of control

Cn1c(=O)c2c(nc(NCC[N+](C)(C)Cc3ccc(Cl)cc3)n2C)n(C)c1=O
inactive: dose: 6.25 mg/kg/injection, schedule: Q01DX009 (ip), vehicle: Klucel (hydroxypropylcellulose) (HPC) 93 % of control | dose: 12.5 mg/kg/injection, schedule: Q01DX009 (ip), vehicle: Klucel (hydroxypropylcellulose) (HPC) 101 % of control | dose: 25.0 mg/kg/injection, schedule: Q01DX009 (ip), vehicle: Klucel (hydroxypropylcellulose) (HPC) 113 % of control and 94 % of control

CN(C)C(=O)Oc1ccc(OC(=O)N(C)C)c2ccccc12
inactive: dose: 6.25 mg/kg/injection, schedule: Q01DX001 (ip), vehicle: Klucel (hydroxypropylcellulose) (HPC) 104 % of control | dose: 12.5 mg/kg/injection, schedule: Q01DX001 (ip), vehicle: Klucel (hydroxypropylcellulose) (HPC) 104 % of control | dose: 25.0 mg/kg/injection, schedule: Q01DX001 (ip), vehicle: Klucel (hydroxypropylcellulose) (HPC) 99 % of control and 100 % of control
